# Data: PMC7707092, “Discovery and characterization of ORM‐11372, a novel inhibitor of the sodium‐calcium exchanger with positive inotropic activity” (British Journal of Pharmacology, 2020)
# System: anaesthetized rats with myocardial infarctions
# Assay: Haemodynamics in anaesthetized MI and sham rats
# Type: in vivo
# Conditions: for free plasma concentration: 417 μg·kg^−1·min^−1; for maximal positive inotropic effect (LV + dP/dt max): i.v. infusion 417 μg·kg^−1·min^−1
# From the text: Male Sprague–Dawley rats (Harlan, Netherlands B.V.) were housed in polycarbonate cages (Makrolon IV with stainless steel wire mesh lids). A maximum of five rats were housed per cage with aspen chip bedding (Tapvei Ky, Kaavi, Finland). Rats had free access to water (twice filtered, Espoon Vesi) and a rodent diet (SDS RM1 (P) SQC pelleted diet, Special Diet Services Ltd, Witham, England). The acclimation period before experiments was at least 5 days. In the MI model, rats (7–8 weeks, 200–250 g) were randomized into either the MI or sham group. In this weight range, a rat is considered a young adult, when its evolution phase is characterized by slow growth and its surgical mortality is lower than that of older animals. Male rats were used to minimize the variability of the cardiac response to several stimuli (Zornoff, Paiva, Minicucci, & Spadaro, 2009).
# Rats were anaesthetized with a combination of ketamine (Ketalar® 50 mg·kg−1, i.p.) and medetomidine (Domitor 250 μg·kg^−1, i.p.), intubated, and artificially ventilated with air (Ugo Basile 7025). An MI was induced by the occlusion of the left coronary artery under aseptic conditions (Levijoki, Pollesello, Kaheinen, & Haikala, 2001; Selye, Bajusz, Grasso, & Mendell, 1960). The left coronary artery was ligated at a distance of about 2–3 mm from the origin of the aorta with a silk suture, and the heart was repositioned into the chest. After ligation, the wound was closed carefully. The muscle layer was closed with soluble stitches and skin layers with insoluble stitches, followed by a partial reversal of anaesthesia via the […] administration of atipamezole (Antisedan® 0.3–1 mg·kg^−1, i.m.). The trachea tube was removed, and the trachea and underlying muscle and skin layers were closed immediately. To prevent dehydration, rats were subcutaneously administered with 5 ml of 0.9% NaCl. After surgery, rats were given analgesia with buprenorphine for at least 2 days (0.05 mg·kg^−1, s.c. twice a day). For sham‐operated rats, the same procedure was performed, without ligation. Rats were analysed for 7 days after the MI, for signs of severe acute heart failure such as oedema or breathing difficulties.
# All animals were given multiple ascending infusion doses of ORM‐11372; blinding was not possible. Systemic BP (SP) and left ventricular pressure (LVP) values were measured with pressure transducers (SP for femoral artery: Isotec, Hugo Sachs Elektronic, Germany; a miniature pressure transducer Mikro‐Tip transducer SPR‐249, Millar Instruments was inserted into the left ventricle via the right carotid artery). The signal was amplified (DC‐bridge amplifier type 660, Hugo Sachs Elektronik, Germany), digitized (I/O connector block type SCB‐68, National Instruments, USA), recorded, and analysed (IHME 1.0.9, Fision Ltd, Finland). Left ventricular inotropic effect (LV + dP/dt max), relaxation (LV − dP/dt min), and HR values were analysed from LVP signals.
# Haemodynamics were assessed 7 days after the MI (n = 6) or sham operation (n = 6) as follows. Rats were anaesthetized with isoflurane (2.25–2.5%, Baxter) in carbogen (95% O2 and 5% CO2) and nitrous oxide (1:1), using a small rodent ventilator (Ugo Basile 7025, ~10 ml·kg^−1, 60 strokes·min^−1). The rats were infused with 0.9% NaCl in the […] at the stabilization and baseline levels. ORM‐11372 was administered into MI (n = 6) and sham (n = 6) rats in ascending infusion doses of 1.7, 17, 167, and 417 μg·kg^−1·min^−1. Infusions were administered into the jugular vein of MI rats at the infusion rate of 5 ml·kg^−1·h^−1 (Terumo TE‐311, Belgium). Doses were selected based on a pilot study with healthy rats (Figure S20). The total number of animals in the study was 12 + 2, due to the replacement of two MI rats. […]
compound,measurement,setting,value
Nc1cccc(-c2ccc(CNc3ccc(F)cc3)o2)c1 [ORM‐11372],improvement of relaxation,"MI group, lowest infusion dose 1.7 μg·kg^−1·min^−1",24 ± 2%
same,systemic arterial BP,MI or sham groups,no effect
same,free plasma concentration,MI rats,6.7 ± 2.5 nM
same,maximal positive inotropic effect (LV + dP/dt max),MI rats,18 ± 6%
same,free plasma concentration,sham rats,4.9 ± 0.4 nM
same,maximal positive inotropic effect (LV + dP/dt max),sham rats,31 ± 6%
